Source: patent US20160128951A1, “PHARMACEUTICAL COMPOSITIONS OF FINGOLIMOD” (AIZANT DRUG RESEARCH SOLUTIONS PVT LTD, priority 2013, published 2016)

Assay: Stability study (impurities) at 40° C./75% RH for one week
Format: physicochemical
Experimental: Stability study was conducted for active ingredient, compositions of the present invention and comparative composition. The study was conducted at 40° C./75% RH for one week.

[1] = After one week at 40° C./75% RH, Sample (API)

CCCCCCCCc1ccc(CCC(N)(CO)CO)cc1.Cl [API, 2-amino-2-[2-(4-octylphenyl)ethyl]-propane-1,3-diol]
0.05 % w/w: Impurity 1 [1] | Total Impurities [1] | Impurity 1 (Initial, Sample) | Total Impurities (Initial, Sample)
